Where two headings read alike, the source gives them in different places.
Assays:
[1] = tested on: Staphylococcus aureus; experiment: MIC on wild-type hospital strains (Example 6); assay type: cell-based; settings: in the presence of LiF at 1 mg/l, 8 strains
Experimental: (§1) The MIC of benzalkonium chloride, alone and in the presence of LiF at a concentration of 1 mg/l, was determined with respect to other wild-type strains originating from hospital sources namely Streptococcus (6 strains). Staphylococcus aureus (8 strains). Salmonella typhimurium (3 strains) and Sarcina lutea (1 strain).

[2] = tested on: Sarcina lutea; experiment: MIC on wild-type hospital strains (Example 6); assay type: cell-based; settings: Micrococcus luteus, 1 strain
Experimental: as §1

[3] = tested on: Streptococcus; experiment: MIC on wild-type hospital strains (Example 6); assay type: cell-based; settings: 6 strains
Experimental: as §1

[4] = tested on: Salmonella typhimurium; experiment: MIC on wild-type hospital strains (Example 6); assay type: cell-based; settings: Salmonella enterica, 3 strains
Experimental: as §1

[5] = tested on: Staphylococcus aureus Oxford strain CNCM 53 154; settings: cited from earlier work
[6] = tested on: Mycobacterium smegmatis CNCM 7 326; settings: cited from earlier work
[7] = tested on: Aspergillus niger; experiment: MIC on hospital strains (Example 13); assay type: cell-based; settings: read-out: MIC of benzalkonium chloride
Experimental: (§2) The same trials as in example 12 were carried out on hospital strains of various microorganisms.

[8] = tested on: Gardenerella vaginalis; experiment: MIC on hospital strains (Example 13); assay type: cell-based; settings: read-out: MIC of benzalkonium chloride
Experimental: as §2

[9] = tested on: Staphylococcus aureus; experiment: MIC on hospital strains (Example 13); assay type: cell-based; settings: read-out: MIC of benzalkonium chloride
Experimental: as §2

[10] = tested on: Sarcina lutea; experiment: MIC on hospital strains (Example 13); assay type: cell-based; settings: Micrococcus luteus, read-out: MIC of benzalkonium chloride
Experimental: as §2

[11] = tested on: Streptococcus faecalis; experiment: MIC on hospital strains (Example 13); assay type: cell-based; settings: Enterococcus faecalis, read-out: MIC of benzalkonium chloride
Experimental: as §2

[12] = tested on: Bacillus subtilis; experiment: MIC on hospital strains (Example 13); assay type: cell-based; settings: read-out: MIC of benzalkonium chloride
Experimental: as §2

[13] = tested on: Ducrey's bacillus; experiment: MIC on hospital strains (Example 13); assay type: cell-based; settings: read-out: MIC of benzalkonium chloride
Experimental: as §2

[14] = tested on: Neisseria gonorrhoea; experiment: MIC on hospital strains (Example 13); assay type: cell-based; settings: read-out: MIC of benzalkonium chloride
Experimental: as §2

[15] = tested on: Candida albicans; experiment: MIC on hospital strains (Example 13); assay type: cell-based; settings: read-out: MIC of benzalkonium chloride
Experimental: as §2

[16] = tested on: Trichomonas vaginalis; experiment: MIC on hospital strains (Example 13); assay type: cell-based; settings: read-out: MIC of benzalkonium chloride
Experimental: as §2

[17] = tested on: Escherichia coli; experiment: MIC on hospital strains (Example 13); assay type: cell-based; settings: read-out: MIC of benzalkonium chloride
Experimental: as §2

[18] = tested on: DUCREY's bacillus; experiment: MIC with respect to DUCREY's bacillus; assay type: cell-based, DUCREY's Haemophilus; settings: read-out: MIC of the primary active principle
Experimental: (§3) The methodology employed is that described by Professor F. CATALAN, P. SEDNAOUI, A. MILOVANOVIC et al., Institut A. FOURNIER, PARIS.
The trials were performed on 8 wild-type strains of DUCREY's Haemophilus. The following results were recorded with respect to these strains: […]

[19] = tested on: Chlamydia trachomatis; experiment: MIC on Chlamydia trachomatis strains; assay type: cell-based; settings: listed test strain, read-out: MIC of benzalkonium chloride
Experimental: The test was performed on 12 strains of Chlamydia trachomatis originating from hospital sources, in particular from cases of urethritis. All the trials were performed in duplicate, and the results compared with those for a listed control strain.
The MIC corresponds to the concentration of benzalkonium chloride at and above which the average number of colonies in Petri dishes containing the active substance is less than one tenth of the average number of colonies in Petri dishes without active substance.

[20] = tested on: spermatozoa; experiment: SANDERS-CRAMER total spermicidal test according to IPPF standards; assay type: cell-based; settings: with 1 ml solution containing 0.0001% lithium fluoride; in the initial 1 millilitre
[21] = tested on: MAC COY cells; settings: mouse
[22] = tested on: Proteus vulgaris; experiment: MIC on hospital strains of pyogenic microorganisms; assay type: cell-based; settings: read-out: MIC of the primary active principle
Text: as §3
(§4) With the same methodology, the following results were observed on hospital strains of pyogenic microorganisms, namely […] streptococcus, Proteus vulgaris, Haemophilus influenzae: […]

[23] = tested on: Haemophilus influenzae; experiment: MIC on hospital strains of pyogenic microorganisms; assay type: cell-based; settings: read-out: MIC of the primary active principle
Text: as §3, §4

[24] = tested on: β-Haemolytic streptococcus; experiment: MIC on hospital strains of pyogenic microorganisms; assay type: cell-based; settings: read-out: MIC of the primary active principle
Text: as §3, §4

[25] = tested on: Pseudomonas aeruginosa CNCM A 22; settings: cited from earlier work
[26] = tested on: Escherichia coli CNCM 54 127; experiment: MIC, French standard NF T 72-150, AFNOR strain; assay type: cell-based; settings: in the presence of LiF at 1 mg/l
Experimental: (§5) French standard NF T 72-150, March 1981, was followed by the trials carried out. The trials were performed on the strains defined by the AFNOR standard.
(§6) The results obtained on the strains defined by the AFNOR standard for benzalkonium chloride alone and for benzalkonium chloride with the addition of 1 mg/l of sodium fluoride were already given in unpublished European Patent Application 86/402,716.4, and have been recorded again.

[27] = tested on: Pseudomonas aeruginosa CNCM A 22; experiment: MIC, French standard NF T 72-150, AFNOR strain; assay type: cell-based; settings: in the presence of LiF at 1 mg/l
Experimental: as §5, §6

[28] = tested on: Streptococcus faecalis CNCM 5 855; experiment: MIC, French standard NF T 72-150, AFNOR strain; assay type: cell-based; settings: in the presence of LiF at 1 mg/l
Experimental: as §5, §6

[29] = tested on: Staphylococcus aureus Oxford strain CNCM 53 154; experiment: MIC, French standard NF T 72-150, AFNOR strain; assay type: cell-based; settings: in the presence of LiF at 1 mg/l
Experimental: as §5, §6

[30] = tested on: Mycobacterium smegmatis CNCM 7 326; experiment: MIC, French standard NF T 72-150, AFNOR strain; assay type: cell-based; settings: in the presence of LiF at 1 mg/l
Experimental: as §5, §6

[31] = in the presence of LiF at 1 mg/l
[32] = in the presence of NaF at 1 mg/l
[33] = in the presence of LiF at 1 ppm
[34] = in the presence of LiF at 1 mg/l and of KATHON CG preservative at 0.4 mg/l

SMILES: CCCCCCCCCCCCCC[N+](C)(C)Cc1ccccc1.[Cl-] [benzalkonium chloride, myristyldimethylbenzylammonium chloride]
- MIC [1]: 0.3 mg/L
- MIC ([2]; alone): 15 mg/L
- MIC [2, 31]: 11 mg/L
- MIC ([3]; alone): 18 to 20 mg/L
- MIC [3, 31]: 10 mg/L
- MIC ([4]; alone): 17 mg/L
- MIC [4, 31]: 12 mg/L
- MIC of benzalkonium chloride ([5]; alone): 1.56 mg/L
- MIC of benzalkonium chloride [5, 32]: 1.1 mg/L
- MIC of benzalkonium chloride ([6]; alone): 30 mg/L
- MIC of benzalkonium chloride [6, 32]: 26 mg/L
- MIC ([7]; alone): 85 mg/L
- MIC [7, 33]: 80 mg/L
- MIC ([8]; alone): 50 mg/L
- MIC [8, 33]: 41 mg/L
- MIC ([9]; alone): 1.56 mg/L
- MIC [9, 33]: 1 mg/L
- MIC ([10]; alone): 11 mg/L
- MIC [10, 33]: 7.5 mg/L
- MIC ([11]; alone): 15 mg/L
- MIC [11, 33]: 9 mg/L
- MIC ([12]; alone): 8 mg/L
- MIC [12, 33]: 5.4 mg/L
- MIC ([13]; alone): 75 mg/L
- MIC [13, 33]: 62 mg/L
- MIC ([14]; alone): 1.15 mg/L
- MIC [14, 33]: 0.6 mg/L
- MIC ([15]; alone): 50 mg/L
- MIC [15, 33]: 35 mg/L
- MIC ([16]; alone): 1.3 mg/L
- MIC [16, 33]: 0.9 mg/L
- MIC ([17]; alone): 8 mg/L
- MIC [17, 33]: 6.5 mg/L
- MIC ([18]; in the presence of LiF (1 mg/l)): 65 mg/L
- MIC ([18]; in the presence of NaF (1 mg/l)): 85 mg/L
- MIC [18]: 100 mg/L
- MIC ([19]; 1 mg/ml added (lithium fluoride)): 13 mg/L
- MIC ([19]; alone): 18 mg/L
- MIC of benzalkonium chloride [20]: 0.0009%
- threshold of cytotoxic activity [21]: 0.01%
- MIC ([22]; alone): 25 mg/L
- MIC [22, 34]: 18.5 mg/L
- MIC ([23]; alone): 200 mg/L
- MIC [23, 34]: 150 mg/L
- MIC ([24]; alone): 50 mg/L
- MIC [24, 34]: 25 mg/L
- MIC of benzalkonium chloride ([25]; alone): 31.25 mg/L
- MIC of benzalkonium chloride [25, 32]: 18 mg/L
- MIC of benzalkonium chloride [26]: 2 mg/L
- MIC of benzalkonium chloride [27]: 15 mg/L
- MIC of benzalkonium chloride [28]: 2.8 mg/L
- MIC of benzalkonium chloride [29]: 1.1 mg/L
- MIC of benzalkonium chloride [30]: 22 mg/L

From patent US5800838A, “Composition that inhibits or destroys at least one unicellular living organism containing fluorine F- and Lithium li+” (priority 1987, dated 1998)
